biological target: T1, Microsomal triglyceride transfer protein (MTP) from human small intestine microsome (Homo sapiens, UniProt P55157); assay: Inhibition test of interliposomal triglyceride (TG) transfer activity by MTP; format: biochemical; details: purified MTP from human small intestine microsome, 37° C., 1.5 hours
T1 construct: Human small intestine microsome was dialyzed against 10 mM phosphate buffer; tissue Tissue Transforming Technologies, Inc; host or cells: human small intestine microsome
In short: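 DEAE-purified human small intestine MTP (50 μL of 20 μg/mL) incubated 1.5 hours at 37° C with ^14C-triolein donor and unlabelled acceptor SUV liposomes in pH 7.4 Tris buffer with 0.5% BSA. Donor removed on DEAE cellulose; acceptor radioactivity counted, blank-corrected against DMSO control, giving percent inhibition and IC50.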

T1 sequence (P55157 19-894): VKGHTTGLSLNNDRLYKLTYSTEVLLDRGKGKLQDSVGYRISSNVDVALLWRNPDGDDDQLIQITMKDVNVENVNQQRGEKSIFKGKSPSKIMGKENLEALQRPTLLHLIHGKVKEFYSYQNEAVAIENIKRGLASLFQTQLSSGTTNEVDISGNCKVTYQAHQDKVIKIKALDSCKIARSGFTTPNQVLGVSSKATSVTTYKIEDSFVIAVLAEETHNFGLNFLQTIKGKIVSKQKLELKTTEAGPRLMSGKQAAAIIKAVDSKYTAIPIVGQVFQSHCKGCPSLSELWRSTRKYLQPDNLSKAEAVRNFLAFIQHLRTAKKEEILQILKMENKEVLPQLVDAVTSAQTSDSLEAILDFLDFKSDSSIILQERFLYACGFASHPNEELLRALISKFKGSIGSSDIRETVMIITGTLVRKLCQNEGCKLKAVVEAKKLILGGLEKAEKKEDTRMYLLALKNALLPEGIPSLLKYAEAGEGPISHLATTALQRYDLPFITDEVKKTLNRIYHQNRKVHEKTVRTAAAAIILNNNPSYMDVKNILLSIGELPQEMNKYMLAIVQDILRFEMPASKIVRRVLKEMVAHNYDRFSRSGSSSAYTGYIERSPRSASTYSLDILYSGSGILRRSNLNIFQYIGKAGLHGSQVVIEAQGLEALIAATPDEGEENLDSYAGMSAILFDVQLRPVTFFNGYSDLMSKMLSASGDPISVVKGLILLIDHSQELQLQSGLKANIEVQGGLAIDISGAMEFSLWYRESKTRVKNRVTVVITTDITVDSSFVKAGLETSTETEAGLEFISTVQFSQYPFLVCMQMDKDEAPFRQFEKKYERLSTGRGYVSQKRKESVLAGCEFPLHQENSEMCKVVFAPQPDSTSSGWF
T1 sequence (P07237 18-508 partner): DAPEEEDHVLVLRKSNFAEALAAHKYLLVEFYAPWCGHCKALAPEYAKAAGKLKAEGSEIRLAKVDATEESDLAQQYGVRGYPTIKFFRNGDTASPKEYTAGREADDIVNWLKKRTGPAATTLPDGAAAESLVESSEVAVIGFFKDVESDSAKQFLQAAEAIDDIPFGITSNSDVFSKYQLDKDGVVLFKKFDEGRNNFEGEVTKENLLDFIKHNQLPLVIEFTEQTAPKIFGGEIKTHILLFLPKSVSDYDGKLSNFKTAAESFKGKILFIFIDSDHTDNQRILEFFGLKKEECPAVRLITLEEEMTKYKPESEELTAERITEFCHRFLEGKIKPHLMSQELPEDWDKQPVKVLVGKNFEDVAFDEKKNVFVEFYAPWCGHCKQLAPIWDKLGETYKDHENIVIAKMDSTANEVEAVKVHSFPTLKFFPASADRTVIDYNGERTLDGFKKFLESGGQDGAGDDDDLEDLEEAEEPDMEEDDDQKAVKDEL

Row | SMILES | IC50
1 | CCC(=O)c1ccc(OC(=O)CCCc2ccc(NC(=O)c3ccccc3-c3ccc(C(F)(F)F)cc3)c(C(=O)N(C)C)c2)cc1 [Compound 1-88, 4-(3-dimethylcarbamoyl-4-{(4′-trifluoromethylbiphenyl-2-carbonyl)amino}phenyl)butyric acid 4-propionylphenyl ester] | < 10 nM
2 | CN(C)C(=O)c1cc(CCCC(=O)Oc2ccc(C(=O)OCCN3CCCC3=O)cc2)ccc1NC(=O)c1ccccc1-c1ccc(C(F)(F)F)cc1 [Compound 1-91, 4-[4-(3-dimethylcarbamoyl-4-{(4′-trifluoromethylbiphenyl-2-carbonyl)amino}phenyl)butyryloxy]benzoic acid 2-(2-oxopyrrolidin-1-yl)ethyl ester] | < 10 nM
3 | CN(C)C(=O)c1cc(CCCC(=O)Oc2ccc(C(=O)OCCCO)cc2)ccc1NC(=O)c1ccccc1-c1ccc(C(F)(F)F)cc1 [Compound 1-92, 4-[4-(3-dimethylcarbamoyl-4-{(4′-trifluoromethylbiphenyl-2-carbonyl)amino}phenyl)butyryloxy]benzoic acid 3-hydroxypropyl ester] | < 10 nM
4 | CCCC(=O)c1ccc(OC(=O)CCCc2ccc(NC(=O)c3ccccc3-c3ccc(C(F)(F)F)cc3)c(C(=O)N(C)C)c2)cc1 [Compound 1-93, 4-(3-dimethylcarbamoyl-4-{(4′-trifluoromethylbiphenyl-2-carbonyl)amino}phenyl)butyric acid 4-butyrylphenyl ester] | < 10 nM
5 | Cc1ccc(C(=O)Nc2ccc(CCCC(=O)Oc3ccc(C(=O)OCc4cccnc4)cc3)cc2C(=O)N(C)C)c(-c2ccc(C(F)(F)F)cc2)n1 [Compound 1-94, 4-[4-(3-dimethylcarbamoyl-4-{[6-methyl-2-(4-trifluoromethylphenyl)pyridine-3-carbonyl]amino}phenyl)butyryloxy]benzoic acid pyridin-3-ylmethyl ester] | < 10 nM
6 | CN(C)C(=O)c1cc(CCCC(=O)Oc2ccc(C(=O)OCc3cccs3)cc2)ccc1NC(=O)c1ccccc1-c1ccc(C(F)(F)F)cc1 [Compound 1-98, 4-[4-(3-dimethylcarbamoyl-4-{(4′-trifluoromethylbiphenyl-2-carbonyl)amino}phenyl)butyryloxy]benzoic acid thiophen-2-ylmethyl ester] | < 10 nM
7 | Cc1cccc(COC(=O)c2ccc(OC(=O)CCCc3ccc(NC(=O)c4ccc(C)nc4-c4ccc(C(F)(F)F)cc4)c(C(=O)N(C)C)c3)cc2)n1 [Compound 1-100, 4-[4-(3-dimethylcarbamoyl-4-{[6-methyl-2-(4-trifluoromethylphenyl)pyridine-3-carbonyl]amino}phenyl)butyryloxy]benzoic acid 6-methylpyridin-2-ylmethyl ester] | < 10 nM
8 | CC(C)OC(=O)COC(=O)c1ccc(OC(=O)CCCc2ccc(NC(=O)c3ccccc3-c3ccc(C(F)(F)F)cc3)c(C(=O)N(C)C)c2)cc1 [Compound 1-102] | < 10 nM
9 | CN(C)C(=O)c1cc(CCCC(=O)Oc2ccc(C(=O)OCc3ccc(C(=O)OC(C)(C)C)cc3)cc2)ccc1NC(=O)c1ccccc1-c1ccc(C(F)(F)F)cc1 [Compound 1-103, 4-[4-(3-dimethylcarbamoyl-4-{(4′-trifluoromethylbiphenyl-2-carbonyl)amino}phenyl)butyryloxy]benzoic acid 4-(t-butoxycarbonyl)benzyl ester] | < 10 nM
10 | CN(C)C(=O)c1cc(CCCC(=O)Oc2ccc(C(=O)OC3CCCc4ccccc43)cc2)ccc1NC(=O)c1ccccc1-c1ccc(C(F)(F)F)cc1 (stereo not shown) [Compound 1-108, 4-[4-(3-dimethylcarbamoyl-4-{(4′-trifluoromethylbiphenyl-2-carbonyl)amino}phenyl)butyryloxy]benzoic acid 1,2,3,4-tetrahydronaphthalen-1-yl ester] | < 10 nM
11 | CC(=O)N1CCC(OC(=O)c2ccc(OC(=O)CCCc3ccc(NC(=O)c4ccccc4-c4ccc(C(F)(F)F)cc4)c(C(=O)N(C)C)c3)cc2)CC1 [Compound 1-109, 4-[4-(3-dimethylcarbamoyl-4-{(4′-trifluoromethylbiphenyl-2-carbonyl)amino}phenyl)butyryloxy]benzoic acid 1-acetylpiperidin-4-yl ester] | < 10 nM
12 | COC(=O)c1cc(C)c(OC(=O)CCCc2ccc(NC(=O)c3ccc(C)nc3-c3ccc(C(F)(F)F)cc3)c(C(=O)N(C)C)c2)c(C(=O)OC)c1 [Compound 1-110, 4-[4-(3-dimethylcarbamoyl-4-{[6-methyl-2-(4-trifluoromethylphenyl)pyridine-3-carbonyl]amino}phenyl)butyryloxy]-5-methylisophthalic acid dimethyl ester] | < 10 nM
13 | COC(=O)c1cc(C(=O)OC(C)C)cc(C)c1OC(=O)CCCc1ccc(NC(=O)c2ccc(C)nc2-c2ccc(C(F)(F)F)cc2)c(C(=O)N(C)C)c1 [Compound 1-111, 4-[4-(3-dimethylcarbamoyl-4-{[6-methyl-2-(4-trifluoromethylphenyl)pyridine-3-carbonyl]amino}phenyl)butyryloxy]-5-methylisophthalic acid 1-isopropyl ester 3-methyl ester] | < 10 nM
14 | CCOC(=O)c1cc(C)c(OC(=O)CCCc2ccc(NC(=O)c3ccc(C)nc3-c3ccc(C(F)(F)F)cc3)c(C(=O)N(C)C)c2)c(Cl)c1 [Compound 1-112, 3-chloro-4-[4-(3-dimethylcarbamoyl-4-{[6-methyl-2-(4-trifluoromethylphenyl)pyridine-3-carbonyl]amino}phenyl)butyryloxy]-5-methylbenzoic acid ethyl ester] | < 10 nM

Further lines, results first:

Row | IC50 | SMILES
15 | < 10 nM | CN(C)C(=O)c1cc(CCCC(=O)Oc2ccc(C(=O)OCCOCc3ccccc3)cc2)ccc1NC(=O)c1ccccc1-c1ccc(C(F)(F)F)cc1 [Compound 1-89, 4-[4-(3-dimethylcarbamoyl-4-{(4′-trifluoromethylbiphenyl-2-carbonyl)amino}phenyl)butyryloxy]benzoic acid 2-benzyloxyethyl ester]
16 | < 10 nM | CN(C)C(=O)c1cc(CCCC(=O)Oc2ccc(C(=O)OCCCOCc3ccccc3)cc2)ccc1NC(=O)c1ccccc1-c1ccc(C(F)(F)F)cc1 [Compound 1-90, 4-[4-(3-dimethylcarbamoyl-4-{(4′-trifluoromethylbiphenyl-2-carbonyl)amino}phenyl)butyryloxy]benzoic acid 3-benzyloxypropyl ester]
17 | < 10 nM | CN(C)C(=O)c1cc(CCCC(=O)Oc2ccc(-c3nnn(C)n3)cc2)ccc1NC(=O)c1ccccc1-c1ccc(C(F)(F)F)cc1 [Compound 1-95, 4-(3-dimethylcarbamoyl-4-{(4′-trifluoromethylbiphenyl-2-carbonyl)amino}phenyl)butyric acid 4-(2-methyl-2H-tetrazol-5-yl)phenyl ester]
18 | < 10 nM | COc1ccc(COC(=O)c2ccc(OC(=O)CCCc3ccc(NC(=O)c4ccccc4-c4ccc(C(F)(F)F)cc4)c(C(=O)N(C)C)c3)cc2)cc1 [Compound 1-96, 4-[4-(3-dimethylcarbamoyl-4-{(4′-trifluoromethylbiphenyl-2-carbonyl)amino}phenyl)butyryloxy]benzoic acid 4-methoxybenzyl ester]
19 | < 10 nM | COc1cccc(COC(=O)c2ccc(OC(=O)CCCc3ccc(NC(=O)c4ccccc4-c4ccc(C(F)(F)F)cc4)c(C(=O)N(C)C)c3)cc2)c1 [Compound 1-97, 4-[4-(3-dimethylcarbamoyl-4-{(4′-trifluoromethylbiphenyl-2-carbonyl)amino}phenyl)butyryloxy]benzoic acid 3-methoxybenzyl ester]
20 | < 10 nM | CN(C)C(=O)c1cc(CCCC(=O)Oc2ccc(C(=O)OCc3ccsc3)cc2)ccc1NC(=O)c1ccccc1-c1ccc(C(F)(F)F)cc1 [Compound 1-99, 4-[4-(3-dimethylcarbamoyl-4-{(4′-trifluoromethylbiphenyl-2-carbonyl)amino}phenyl)butyryloxy]benzoic acid thiophen-3-ylmethyl ester]
21 | < 10 nM | Cc1cccc(COC(=O)c2ccc(OC(=O)CCCc3ccc(NC(=O)c4ccccc4-c4ccc(C(F)(F)F)cc4)c(C(=O)N(C)C)c3)cc2)n1 [Compound 1-101, 4-[4-(3-dimethylcarbamoyl-4-{(4′-trifluoromethylbiphenyl-2-carbonyl)amino}phenyl)butyryloxy]benzoic acid 6-methylpyridin-2-ylmethyl ester]
22 | < 10 nM | CN(C)C(=O)c1cc(CCCC(=O)Oc2ccc(-c3nnn(CC(=O)OCc4ccccc4)n3)cc2)ccc1NC(=O)c1ccccc1-c1ccc(C(F)(F)F)cc1 [Compound 1-104, 4-(3-dimethylcarbamoyl-4-{(4′-trifluoromethylbiphenyl-2-carbonyl)amino}phenyl)butyric acid 4-(2-benzyloxycarbonylmethyl-2H-tetrazol-5-yl)phenyl ester]
23 | < 10 nM | CN(C)C(=O)Cn1nnc(-c2ccc(OC(=O)CCCc3ccc(NC(=O)c4ccccc4-c4ccc(C(F)(F)F)cc4)c(C(=O)N(C)C)c3)cc2)n1 [Compound 1-105, 4-(3-dimethylcarbamoyl-4-{(4′-trifluoromethylbiphenyl-2-carbonyl)amino}phenyl)butyric acid 4-(2-dimethylcarbamoylmethyl-2H-tetrazol-5-yl)phenyl ester]
24 | < 10 nM | CC(OC(=O)c1ccc(OC(=O)CCCc2ccc(NC(=O)c3ccccc3-c3ccc(C(F)(F)F)cc3)c(C(=O)N(C)C)c2)cc1)c1ccccc1 (stereo not shown) [Compound 1-106, 4-[4-(3-dimethylcarbamoyl-4-{(4′-trifluoromethylbiphenyl-2-carbonyl)amino}phenyl)butyryloxy]benzoic acid 1-phenylethyl ester]
25 | < 10 nM | CN(C)C(=O)c1cc(CCCC(=O)Oc2ccc(C(=O)OC3CCc4ccccc43)cc2)ccc1NC(=O)c1ccccc1-c1ccc(C(F)(F)F)cc1 (stereo not shown) [Compound 1-107, 4-[4-(3-dimethylcarbamoyl-4-{(4′-trifluoromethylbiphenyl-2-carbonyl)amino}phenyl)butyryloxy]benzoic acid indan-1-yl ester]

From patent US8101774B2, “Ester derivatives and medicinal use thereof” (Japan Tobacco Inc., priority 2004, dated 2012)
